Experimental data: patent US9585954B2, “Mucosal immunization” (ARIZONA BOARD OF REGENTS FOR AND ON BEHALF OF ARIZONA STATE …, priority 2009, dated 2017)

Tested on: antigen-relevant immune responses to NVCP VLP
Set-up: species or system experimental animals
Details: in vivo

**Q.** For `CCNCc1nc2c(N)nc3ccccc3c2n1CC(C)(C)O` [gardiquimod], which antigen-relevant immune responses is on record?
**A.** much more robust immune responses
